Reference: patent US20070196890A1, “Prebiotic effect analysis” (priority 2003, published 2007)

What was measured:
Desulfovibrio spp. = assay: Batch culture fermentation, FISH enumeration; format: cell-based; conditions: 1% (w/v) substrate
Protocol: (§1) Faecal samples are obtained from healthy human volunteers. Volunteers are required not to have been prescribed antibiotics for at least 6 months prior to the study and have no history of gastrointestinal diseases. The samples are collected on site and used immediately following collection. A 1/10 dilution in anaerobic phosphate buffer (0.1 M, pH 7.4) is prepared and the samples homogenised in a stomacher for 2 minutes.
(§2) Sterile, stirred, batch culture fermentation vessels (300 ml volume) are filled with 135 ml basal nutrient medium (peptone water 2 g/l, yeast extract 2 g/l, NaCl 0.1 g/l, K2HPO4 0.04 g/l, KH2PO4 0.04 g/l, MgSO4.7H2O 0.01 g/l, CaCl2.6H2O 0.01, NaHCO3 2 g/l, Tween 80 2 ml, Hemin 0.02 g/l, Vitamin K1 10 μl, Cysteine.HCl 0.5 g/l, Bile salts (sodium glycocholate and sodium taurocholate) 0.5 g/l, pH 7.0) and gassed overnight with oxygen free nitrogen. Prior to addition of the faecal slurry,0.25%, 0.5% or 1% (w/v) testing substrates are added to different vessels, culture temperature is set at 37° C. by means of a circulating water bath and medium pH is maintained at 6.8 using an Electrolab pH controller. The vessels are inoculated with 15 ml of fresh faecal slurry ( 1/10 w/v) and continuously sparged with O2-free N2 at a flow rate of 15 ml/min. Samples (3 ml) from each vessel are obtained for fluorescence in situ hybridisation (FISH), analysis of SCFA by high performance liquid chromatography (HPLC) and total carbohydrate measurement by assay. Batch cultures are run over a period of 24 hours and samples are obtained every 2 hours up to 12 hours and then at 15 and 24 hours.
(§3) Differences in bacterial populations are assessed through use of FISH with oligonucleotide probes designed to target diagnostic regions of 16S rRNA. These are commercially synthesised and labelled with the fluorescent dye Cy3 (provided by Eurogentec UK Ltd).
(§4) For total bacterial counts the nucleic acid stain 4,6-diamidino-2-phenylindole (DAPI) is used. Samples obtained from fermentation vessels are diluted in 4% (w/v) paraformaldehyde and fixed overnight at 4° C. The cells are then centrifuged at 1500×g for 5 minutes, washed twice with phosphate-buffered saline (PBS; 0.1 M, pH 7.0), resuspended in a mixture of PBS/99% ethanol (1:1 w/v) and stored at −20° C. for at least 1 hour. For Lab 158 probe samples are further resuspended in the enzyme mixture containing agents that increase cell permeability and incubated for 1 hour at 37° C. The cells are then washed in PBS, resuspended in 100% methanol and stored at −20° C. for at least 1 hour. The cell suspension is then added to the hybridisation mixture and left overnight to hybridise at the appropriate temperature for each probe. Hybridized mixture is vacuum filtered using a 0.2 μm Isopore membrane filter (Millipore Corporation, Herts, UK). The filter is removed, placed onto a glass slide with SlowFade (Molecular Probes, Eugan, Oreg., USA) and examined under a fluorescent microscope (Nicon Eclipse, E400). The DAPI stained cells are examined under UV light and hybridised cells viewed using a DM510 filter. […] Samples are taken after 24 hours. […] Microbial counts are presented as log10cells/ml.

Bifidobacterium spp. = assay: Batch culture fermentation, FISH enumeration; format: cell-based; conditions: 1% (w/v) substrate
Protocol: as §1, §2, §3, §4

Bacteroides spp. = assay: Batch culture fermentation, FISH enumeration; format: cell-based; conditions: 1% (w/v) substrate
Protocol: as §1, §2, §3, §4

faecal bacteria [1] = assay: Total carbohydrate assay, rate of substrate assimilation, batch culture; format: cell-based, human; conditions: St=S0−Art, S0=1% by weight, exponential phase of bacterial growth
Protocol: A phenol-sulphuric acid assay is used for the determination of total carbohydrate content as expressed in glucose equivalents. The assay is calibrated with D-glucose standards ranging from 0 to 0.15 mgml^−1. Measurements of the absorbance at 450 nm are taken using the spectrophotometer and plotted against the standards. The total carbohydrate content is thus calculated. […] Samples are taken every 2 hours up to […] and then at 15 and 24 hours. […] The rate of assimilation is calculated with the following equation: St=S0−Art […]

faecal bacteria [2] = assay: Measure of the prebiotic effect (MPE), batch culture; format: cell-based, human; conditions: ½√(x²y²+x²z²+y²z²), x=PI (μmax), y=ratio, z=Ar; sign from PI
Excerpt: The three values (PI, Ar and ratio) obtained are used to calculate the MPE value using the following equation: ½√{square root over (x^2y^2+x^2z^2+y^2z^2)}=MPE wherein x=PI (as calculated under paragraph 2.1.2); y=ratio of lactate over total SCFA (as calculated under paragraph 2.2) and z=Ar (as calculated under paragraph 2.3).

E. coli = assay: Batch culture fermentation, FISH enumeration; format: cell-based, Escherichia coli; conditions: 1% (w/v) substrate
Excerpt: For total bacterial counts the nucleic acid stain 4,6-diamidino-2-phenylindole (DAPI) is used. […] For each slide at least 15 different fields of view are counted. […]

Clostridia = assay: Batch culture fermentation, FISH enumeration; format: cell-based, Clostridium coccoides and Clostridium histolyticum; conditions: 1% (w/v) substrate
Protocol: as §1
(§5) Sterile, stirred, batch culture fermentation vessels (300 ml volume) are filled with 135 ml basal nutrient medium (peptone water 2 g/l, yeast extract 2 g/l, NaCl 0.1 g/l, K2HPO4 0.04 g/l, KH2PO4 0.04 g/l, MgSO4.7H2O 0.01 g/l, CaCl2.6H2O 0.01, NaHCO3 2 g/l, Tween 80 2 ml, Hemin 0.02 g/l, Vitamin K1 10 μl, Cysteine.HCl 0.5 g/l, Bile salts (sodium glycocholate and sodium taurocholate) 0.5 g/l, pH 7.0) and gassed overnight with oxygen free nitrogen. […] Samples (3 ml) from each vessel are obtained for fluorescence in situ hybridisation (FISH), analysis of SCFA by high performance liquid chromatography (HPLC) and total carbohydrate measurement by assay. […]
(§6) Differences in bacterial populations are assessed through use of FISH with oligonucleotide probes designed to target diagnostic regions of 16S rRNA. […]

faecal bacteria [3] = assay: Analysis of SCFA production by HPLC, batch culture; format: cell-based, human; conditions: 1% (w/v) substrate
Protocol: The production of succinic, lactic, formic, acetic, propionic, isobutyric, butyric, isovaleric and valeric acids in the fermentations is quantified by HPLC. Samples are centrifuged at 1500×g for 15 minutes and the resultant supernatant used for injection. A Model 1050 UV HPLC (Hewlett Packard), with an integrated oven compartment (50° C.) and data system is used in combination with a differential refractometer (Knauer). Sample injection is performed using an autosampler and is of 20 μl volume. The column is a pre-packed Aminex HPX-87-H strong cation-exchange resin column (150×7.8 mm I.D.), fitted with an ion exclusion micro-guard refill cartridge (Bio-Rad Labs., USA). The eluent used is 0.005 M sulphuric acid. Faecal samples are incubated with 135 ml basal nutrient medium containing 1% (w/v) substrate in batch culture systems at 37° C. Samples are taken every 2 hours up to 10 hours and then at 15 and 24 hours.

Eubacteria = assay: Batch culture fermentation, FISH enumeration; format: cell-based, Eubacterium rectale; conditions: 1% (w/v) substrate
Protocol: as §1, §5, §6

Lactobacilli = assay: Batch culture fermentation, FISH enumeration; format: cell-based, Lactobacillus/Enterococcus spp.; conditions: 1% (w/v) substrate
Protocol: as §1, §5, §6

OC[C@H]1O[C@@](CO)(O[C@H]2O[C@H](CO)[C@@H](O)[C@H](O)[C@H]2O)[C@@H](O)[C@@H]1O [Sucrose, sucrose] was tested, and the “μmax SRB (maximum growth rate, Desulfovibrio spp)” value (Desulfovibrio spp.) was 0.21 h⁻¹, the Desulfovibrio microbial counts (Desulfovibrio spp.; 24 hours, FISH) was 6.7 log10cells/ml and the “μmax B (maximum growth rate, Bifidobacterium spp)” value (Bifidobacterium spp.) was 0.13 h⁻¹. For the same compound, the Bifidobacteria microbial counts (Bifidobacterium spp.; 24 hours, FISH) was 8.0 log10cells/ml, the “μmax Ba (maximum growth rate, Bacteroides spp)” value (Bacteroides spp.) was 0.11 h⁻¹ and the Bacteroides microbial counts (Bacteroides spp.; 24 hours, FISH) was 8.1 log10cells/ml. For the same compound, the “Ar (rate of substrate assimilation)” value (faecal bacteria [1]) was 1.4 per hour, the “Ar (rate of substrate assimilation)” value (faecal bacteria [1]; listed as sucrose) was 1.40 per hour and the “MPE (measure of the prebiotic effect)” value (faecal bacteria [2]) was −0.6. For the same compound, the “μmax Co (maximum growth rate, Escherichia coli)” value (E. coli) was 0.27 h⁻¹, the “E. Coli microbial counts” value (E. coli; 24 hours, FISH) was 7.7 log10cells/ml and the “μmax Cl (maximum growth rate, Clostridium coccoides and Clostridium histolyticum)” value (Clostridia) was 0.22 h⁻¹. The Clostridia microbial counts (Clostridia; 24 hours, FISH) was 7.6 log10cells/ml, the lactate production (faecal bacteria [3]) was “low” and the “μmax E (maximum growth rate, Eubacterium rectale)” value (Eubacteria) was -0.21 h⁻¹. For the same compound, the Eubacteria microbial counts (Eubacteria; 24 hours, FISH) was 7.7 log10cells/ml, the “μmax L (maximum growth rate, lactobacilli)” value (Lactobacilli) was 0.03 h⁻¹ and the Lactobacilli microbial counts (Lactobacilli; 24 hours, FISH) was 6.7 log10cells/ml.
